This is an account of results in US9006173B2, “Microcystins as agents for treatment of cancer” (priority 2006, dated 2015).

Read-outs that look alike come from different tables or passages of the source. Numbered stars: 1 amine (or outer) side, 2 acyl side, 3 side chain; on linkers, the order of the positions; unused ones are H or OH. Bridge positions count the residues as written; N and C are the ends. Square brackets hold non-standard residues; d marks the D form. Peptide text beside a SMILES is read from it. Adda = CO[C@@H](Cc1ccccc1)[C@@H](C)/C=C(C)/C=C/[C@H](N[*:1])[C@H](C)C(=O)[*:2]; dAsp(3S-Me) = C[C@H](C(=O)[*:3])[C@@H](N[*:1])C(=O)[*:2]; d(γGlu) = O=C(O)[C@@H](CCC(=O)[*:2])N[*:1]; NMeDha = C=C(NC)C(=O)O Where only a bound is given, the exact number is not on record here.

Series [1] has as its system pIRESneo2 (control plasmid) transfected HeLa cells. As to the kind of experiment: cells. Format: cell-based.
In series [2] the test system is OATP1B3-transfected HeLa cells.
The subject of series [3] is total phosphatase activity in OATP1B3-transfected HeLa cells. The class given is cell-based.
For series [4], the system named is pIRESneo2 transfected HeLa cells. Format: cell-based.
For series [5] the following is noted: mouse, in vivo; cited from earlier work.
Details of series [6]: species or system athymic nude mice. The note with it: mouse, in vivo, ip.
In series [7] the test system is OATP1B1-expressing HeLa xenografts. Also on record: species or system athymic nude mice. The note with it: mouse, in vivo, ip.
Series [8] has as its system OATP1B1-transfected HeLa cells.
For series [9], the system named is HeLa cells transfected with pIRESneo2. Format: cell-based.
Series [10] concerns OATP1B1 transfected HeLa cells. Format: cell-based.
Series [11] has as its system total phosphatase activity in OATP1B1-transfected HeLa cells. Format: cell-based.
Series [12] addresses PP2A (Homo sapiens, UniProt P67775). The note with it: cited from earlier work.
For series [13], the target named is PP1 (Homo sapiens, UniProt P62136). The note with it: read-out: Reported Ki PP1; cited from earlier work.
Chain of PP1 (P62136 whole entry): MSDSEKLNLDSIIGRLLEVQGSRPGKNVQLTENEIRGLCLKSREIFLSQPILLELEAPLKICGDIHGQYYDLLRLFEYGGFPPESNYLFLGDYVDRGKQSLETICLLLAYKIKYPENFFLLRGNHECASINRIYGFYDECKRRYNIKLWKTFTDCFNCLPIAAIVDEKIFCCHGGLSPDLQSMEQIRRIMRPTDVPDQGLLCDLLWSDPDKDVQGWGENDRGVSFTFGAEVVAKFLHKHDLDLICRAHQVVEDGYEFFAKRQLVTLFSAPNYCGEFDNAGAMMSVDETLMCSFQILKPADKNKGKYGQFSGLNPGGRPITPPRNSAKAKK
The test system of series [14] is OATP1B1. As to the kind of experiment: in vitro. The note with it: human.
In series [15] the target is T1, purified PP2A (Homo sapiens, UniProt P67775).
T1 construct: purchased Upstate Cell Signaling Solutions, NY
T1 sequence (P67775 whole entry): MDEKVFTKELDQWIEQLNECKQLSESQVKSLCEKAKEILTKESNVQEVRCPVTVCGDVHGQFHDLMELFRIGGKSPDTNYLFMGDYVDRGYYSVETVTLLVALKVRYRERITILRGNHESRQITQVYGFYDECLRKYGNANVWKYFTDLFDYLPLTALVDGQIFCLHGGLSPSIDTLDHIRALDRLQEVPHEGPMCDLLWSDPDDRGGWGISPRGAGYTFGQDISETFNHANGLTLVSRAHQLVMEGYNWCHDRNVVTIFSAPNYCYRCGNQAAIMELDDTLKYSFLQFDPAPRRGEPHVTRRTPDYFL
T1 sequence (P30153 2-589, further chain): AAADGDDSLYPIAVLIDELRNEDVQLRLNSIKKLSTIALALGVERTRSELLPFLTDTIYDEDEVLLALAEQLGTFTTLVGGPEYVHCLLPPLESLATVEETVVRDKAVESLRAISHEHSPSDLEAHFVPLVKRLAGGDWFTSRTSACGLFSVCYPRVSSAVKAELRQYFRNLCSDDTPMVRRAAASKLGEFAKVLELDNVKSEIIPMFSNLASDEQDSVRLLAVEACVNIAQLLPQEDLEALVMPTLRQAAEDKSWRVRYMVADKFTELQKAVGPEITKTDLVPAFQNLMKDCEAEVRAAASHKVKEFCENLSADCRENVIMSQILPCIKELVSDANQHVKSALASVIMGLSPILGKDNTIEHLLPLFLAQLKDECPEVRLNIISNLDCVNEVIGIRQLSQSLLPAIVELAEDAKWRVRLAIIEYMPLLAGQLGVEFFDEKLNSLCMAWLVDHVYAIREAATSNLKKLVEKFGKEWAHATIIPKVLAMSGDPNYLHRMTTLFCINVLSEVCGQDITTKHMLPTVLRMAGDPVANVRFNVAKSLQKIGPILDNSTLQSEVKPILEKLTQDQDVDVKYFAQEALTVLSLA
As to the kind of experiment: biochemical. The note with it: [33P]-MyBP substrate, 10 min pre-incubation, mean±SD; read-out: Enzyme Inhibition PP2A IC50.

In series [16] the target is purified PP1 (Oryctolagus cuniculus, UniProt P62139). Put plainly: biochemical.
Chain of purified PP1 (P62139 whole entry): as the sequence (P62136 whole entry) above
The test system of series [17] is OATP1B3. As to the kind of experiment: in vitro. The note with it: human.
The mark [18] stands for this setting: read-out: Growth Inhibition pIRESneo2 IC50.
The mark [19] stands for this setting: read-out: Growth Inhibition OATP1B3 IC50.
Setting [20] is: read-out: Growth inhibition: toxicity not reached / no cytotoxicity up to stated concentration in control cells.
[21] abbreviates: read-out: Growth Inhibition OATP1B1 IC50.

Chain of PP2A (P67775 whole entry): as the sequence (P67775 whole entry) above

With `C=C1C(=O)N[C@H](C)C(=O)N[C@@H](CC(C)C)C(=O)N[C@@H](C(=O)O)[C@H](C)C(=O)N[C@@H](Cc2ccccc2)C(=O)N[C@@H](/C=C/C(C)=C/[C@H](C)[C@H](Cc2ccccc2)OC)[C@H](C)C(=O)N[C@@H](C(=O)O)CCC(=O)N1C` [Microcystin LF, microcystin LF] (F[Adda][d(γGlu)][NMeDha][dA]L[dAsp(3S-Me)]-OH; lactam N-7), the values for the IC50 in series [1] (setting [18]) and in series [2] (setting [19]) were more than 1000 nM and 0.9 ± 0.9 nM, respectively. The “Effect on total phosphatase activity” value in [3] is “no discernable effect”.

As usually defined, the Ki is the equilibrium dissociation constant of an inhibitor or competing ligand from its target. As to `C=C1C(=O)N[C@H](C)C(=O)N[C@@H](CC(C)C)C(=O)N[C@@H](C(=O)O)[C@H](C)C(=O)N[C@@H](CCCNC(=N)N)C(=O)N[C@@H](/C=C/C(C)=C/[C@H](C)[C@H](Cc2ccccc2)OC)[C@H](C)C(=O)N[C@@H](C(=O)O)CCC(=O)N1C` [Microcystin LR, microcystin LR] (R[Adda][d(γGlu)][NMeDha][dA]L[dAsp(3S-Me)]-OH; lactam N-7), the “Cell and nuclear morphology changes” value in [4] is “no changes in cellular morphology”; in series [10], “membrane blebbing”. For the same compound, the “Share of total dose accumulating in the liver” value in [5] is given as 70%. In addition, the “Body weight day 0, daily cohort” value in series [6] turned out to be 22.8±2.7 grams. Also, in series [6], the “Body weight day 0, every other day cohort” value was found to be 21.6±0.8 grams. For the same compound, the “Body weight day 18, daily cohort” value in [6] was 19.0±1.2 grams. Moreover, the “Body weight day 18, every other day cohort” value in series [6] was found to be 22.3±2.4 grams. In addition, the IC50 in series [1] (setting [18]) is more than 10000 nM; in series [1] (setting [20]), more than 10000 nM; in [8] (setting [21]), 5 nM; in [8] (read-out: Growth inhibition IC50 in presence of BSP, OATP1B1), approximately 5000 nM; in series [2] (setting [19]) it was 39 nM; in series [2] (read-out: Growth inhibition IC50 in presence of BSP, OATP1B3), approximately 5000 nM. In addition, the “Average tumor volume, % of control” value in series [7] was 49 % of control. Moreover, the “Growth inhibition activity after 1 hour exposure” value in [8] is “less active”. The “Clonogenic assay toxicity in vector alone cells” value in series [9] was “no toxicity”. For the same compound, the “Decrease of total phosphatase activity” value in series [11] is “approximately 30%”. For the same compound, the inhibition constant (Ki) was 0.01 to 2 nM in series [12] (read-out: Reported Ki PP2A) and 0.06 to 6 nM in [13].

For `C=C1C(=O)N[C@H](C)C(=O)N[C@@H](CC(C)C)C(=O)N[C@@H](C(=O)O)[C@H](C)C(=O)N[C@@H](Cc2c[nH]c3ccccc23)C(=O)N[C@@H](/C=C/C(C)=C/[C@H](C)[C@H](Cc2ccccc2)OC)[C@H](C)C(=O)N[C@@H](C(=O)O)CCC(=O)N1C` [Microcystin LW, microcystin LW] (W[Adda][d(γGlu)][NMeDha][dA]L[dAsp(3S-Me)]-OH; lactam N-7), the IC50 is more than 1000 nM in series [1] (setting [18]) and 0.5 ± 0.4 nM in [2] (setting [19]). Further, the “Effect on total phosphatase activity” value in series [3] was “no discernable effect”.

In the case of `C=C1C(=O)N[C@H](C)C(=O)N[C@@H](CCCNC(=N)N)C(=O)N[C@@H](C(=O)O)[C@H](C)C(=O)N[C@@H](CCCNC(=N)N)C(=O)N[C@@H](/C=C/C(C)=C/[C@H](C)[C@H](Cc2ccccc2)OC)[C@H](C)C(=O)N[C@@H](C(=O)O)CCC(=O)N1C` [Microcystin RR, microcystin RR] (R[Adda][d(γGlu)][NMeDha][dA]R[dAsp(3S-Me)]-OH; lactam N-7), the IC50 in series [1] (setting [18]) is more than 10000 nM; in [1] (setting [20]), more than 10000 nM; in [8] (read-out: Growth inhibition IC50 OATP1B1) it was 3800 ± 2300 nM; in [2] (read-out: Growth inhibition IC50 OATP1B3), 580 ± 400 nM. Besides, in series [3], the “Decrease of total phosphatase activity” value worked out at 90%.

For the compound `C=C1C(=O)N[C@H](C)C(=O)N[C@@H](Cc2ccc(O)cc2)C(=O)N[C@@H](C(=O)O)[C@H](C)C(=O)N[C@@H](CCCNC(=N)N)C(=O)N[C@@H](/C=C/C(C)=C/[C@H](C)[C@H](Cc2ccccc2)OC)[C@H](C)C(=O)N[C@@H](C(=O)O)CCC(=O)N1C` [Microcystin YR, microcystin YR] (R[Adda][d(γGlu)][NMeDha][dA]Y[dAsp(3S-Me)]-OH; lactam N-7), the IC50 was more than 1000 nM in series [1] (setting [18]), 90 ± 20 nM in series [8] (setting [21]) and 45 ± 30 nM in series [2] (setting [19]).

Take `C=C1[C@@H](O)[C@@H]2O[C@]3(CC[C@H](/C=C/[C@@H](C)[C@@H]4CC(C)=C[C@@]5(O[C@H](C[C@@](C)(O)C(=O)O)CC[C@H]5O)O4)O3)CC[C@H]2O[C@@H]1[C@@H](O)C[C@H](C)[C@H]1O[C@@]2(CCCCO2)CC[C@H]1C` [Okadaic acid]: the IC50 in series [14] was 2.2 ± 0.6 nM; in [15], 0.4 ± 0.18 nM; in [1] (Homo sapiens, HeLa, 72 h exposure, SRB dye assay, mean±SD, read-out: Growth Inhibition pIRESneo2 IC50), 7.8 ± 1.5 nM; in [16] it was 90 ± 17 nM; in series [17], 3 ± 1.2 nM; in series [12] (literature (18), read-out: Reported IC50 PP2A) it was 15 to 70 nM.
